# Measured values from patent publication US20090263410A1, “USE OF TGF-B1 INHIBITOR PEPTIDES IN THE PREPARATION OF AN IMMUNE RESPONSE MODULATING AGENT” (Proyecto De Biomedicina Cima, S.L., priority 2005, published 2009).
# Tests used:
# [1] = test system: lymphocyte cultures derived from nodes; test: Induction of T-helper response to FIS: IL-2 and IFN-γ in lymph node lymphocyte culture supernatants; assay type: in vivo, BALB/c mice
# Protocol: The FIS peptide is characterized as a T-helper determinant derived from sperm whale myoglobin, amino acids (106-118). This peptide has been widely used for the induction of antibodies against haptenic peptides. We wanted to analyse the effect of peptide p144 on the induction of a cytokine profile characterized among other things by the increase in IFN-γ and IL-12. In this model the following was administered by […] to groups of 3 female BALB/c mice, 4 to 8 weeks old, (Harlan, Barcelona), distributing the animals in the following treatments: • FIS: mice which received by […] a 1:1 emulsion of Freund's incomplete adjuvant and saline serum which contained 50 μg of FIS. • FIS+p144: mice which received by […] a 1:1 emulsion of Freund's incomplete adjuvant and saline serum which contained 50 μg of FIS and 50 μg of p144.
# 10 days after immunization, the animals were sacrificed and the popliteal, inguinal and periaortic lymph nodes were extracted. The nodes were homogenized with a syringe and they were washed three times at 4° C. with washing medium (clean RPMI 1640 medium). Next, the cells were resuspended in complete medium (RPMI 1640 with 10% FBS, 2 mM of glutamine, 100 U/ml of penicillin, 100 μg/ml of streptomycin, 5×10^−5 M of β-mercaptoethanol, 25 mM of Hepes and sodium pyruvate), at a concentration of 5.3×10^6 cells/ml adding 150 μl in each well of a flat-bottomed 96-well plate. The different peptide concentrations (6 and 10 μM) were added in triplicate and at a volume of […] per well. The cells were cultured in a stove at 37° C. and with 5% CO2 for two days. […] These supernatants were frozen at −20° C. until the quantification of the cytokine concentration.
# The quantity of IFN-γ was measured using a commercial ELISA (Mouse IFN-γ Duoset ELISA Development System, Genzyme, Cambridge and OPTEIA Mouse IFN-γ Set, Pharmingen, San Diego, USA) in accordance with the manufacturer's instructions. The results were expressed as pg/ml of IFN-γ using a standard curve of known quantities of IFN-γ.
# The quantity of IL-2 in each supernatant was measured by studying the proliferation of the CTL.L. cell line, whose growth is IL-2 dependent (Lai M. et al., 1987). […]
# To perform the assay, the supernatants were cultured with 3000-5000 CTL.L. cells per well, diluted to a final volume of 100 μl. […] The radioactivity was quantified in a scintillation counter (Top Count, Microplate Scintillation Counter, Packard) after the addition of 25 μl of scintillation liquid (MICROSCINT®, Packard, Bioscience Company) per well. The results of the counts were expressed as mU/ml of IL-2, interpolating the counts of each well in a standard curve. […]
# CT26 cells = test: Pulmonary metastasis model (intravenous CT26), survival; assay type: in vivo, BALB/c mice; conditions: 5×10^5 CT26 i.v. on day 10; 50 μg AH1 in FIA s.c. day 0; p144 50 μg i.p. alternate days, days 4-20 or 10-20
# From the text: It is speculated that the neutralization of TGF-β1, once the immune response has been induced, could have a beneficial effect on the evolution thereof.
# It is known from previous experience that immunization with only DTc AH1 produced a certain delay in the appearance of tumours after the intravenous administration of CT26 cells. For this reason, in a survival experiment, the inclusion of p144 was compared at different times after immunization with AH1. Thus, the animals in group (i) just received the administration of CT26 cells, the animal groups (ii), (iii) and (iv) were immunized on day 0 by subcutaneous route with 50 μg of AH1 in FIA (Freund's incomplete adjuvant) and they were then administered 5×10^5 CT26 cells by intravenous route on day 10. Group (iii) further received 50 μg of p144 in 500 μl of PS (physiological serum) by intraperitoneal route on alternate days between days 4 and 20. Group (iv), as with group (iii), received 50 μg of p144 in 500 μl of PS by intraperitoneal route on alternate days, only between days 10 and 20.
# [2] = 50 μg FIS + 50 μg p144 in FIA versus FIS alone, in vitro restimulation with FIS
# [3] = lymphocytes from mice immunized with FIS+p144
substance,measurement,setting,value
p144: peptide inhibiting TGF-β1 whose amino acid sequence corresponds to SEQ ID NO: 1 (TSLDASIIWAMMQN; Synthetic Construct from human TGB-Beta1 type III receptor.Domain730-743),IFN-γ production compared to FIS,[1]; [2],reduced
same,IL-2 production compared to FIS,[1]; [2],reduced
same,IFN-γ production when restimulating in vitro against p144,[1]; [3],some production of IFN-γ
same,IL-2 production when restimulating in vitro against p144,[1]; [3],production of IL-2
same,survival / mortality,CT26 cells,reinforces the survival effect
